Results from US20230210816A1 (priority 2020, published 2023).
Like-named read-outs stand apart in the source and are kept apart here.

Assays:
[1] = system: PICV-GFP; test: microbe, parasite or virus in culture; type: cell-based; details: Pichinde virus, Vero C1008, 48 h
[2] = system: MLV pseudovirus bearing MARV Angola glycoprotein; test: microbe, parasite or virus in culture; type: cell-based
[3] = system: MLV pseudovirus bearing PICV WT glycoprotein; test: microbe, parasite or virus in culture; type: cell-based; details: Vero, 24 h
[4] = system: MLV pseudovirus bearing LCMV glycoprotein; test: microbe, parasite or virus in culture; type: cell-based; details: Vero, 24 h
[5] = system: MLV pseudovirus bearing MARV Musoke glycoprotein; test: microbe, parasite or virus in culture; type: cell-based
[6] = system: LASV and JUNV pseudoviruses; test: organism not typed; type: cell-based
[7] = system: LASV Josiah; test: microbe, parasite or virus in culture; type: cell-based, Lassa virus; details: Mammarenavirus lassaense, Vero C1008
[8] = system: arenaviruses; test: organism not typed; type: cell-based; details: read-out: in vitro IC50
[9] = system: MLV pseudovirus bearing JUNV glycoprotein; test: microbe, parasite or virus in culture; type: cell-based; details: Vero, 24 h
[10] = system: EBOV and MARV; test: microbe, parasite or virus in culture; type: cell-based; details: Zaire ebolavirus, read-out: in vitro IC50
[11] = human, in vivo, cited from earlier work

Row | SMILES | IC50 [1] [µM] | IC50 [2] [µM] | IC50 [3] [µM] | IC50 [4] [µM] | IC50 [5] [µM] | fold reduction of IC50 of arbidol by combination [6] | IC50 ([6]; read-out: IC50 of arbidol in combination) [µM] | IC50 [7] [µM] | IC50 [8] [µM] | IC50 [9] [µM] | IC50 [10] [µM] | Cmax ([11]; po) [nM] | Cmax [11] [nM]
1 | CCOC(=O)c1c(CSc2ccccc2)n(C)c2cc(Br)c(O)c(CN(C)C)c12 [arbidol] | 8.4 | 3.9 | 7.4 | 7.4 | 3.5 | about 2 fold | 3 to 4 | 10 | 6 to 10 | 6.4 | 2.7 to 3.9 | 900 to 1500 | 4000
2 | CCN(CC)Cc1cc(Nc2ccnc3cc(Cl)ccc23)ccc1O [amodiaquine] | 4.5 | – | – | – | – | – | – | – | – | – | – | – | –
3 | O=C(Nc1ccc([N+](=O)[O-])cc1Cl)c1cc(Cl)ccc1O [niclosamide] | < 0.2 | – | – | – | – | – | – | 0.2 | – | – | – | – | –
